Here are results for five molecules from patent US8202886B2, “Small molecule E2F inhibitor” (H. Lee Moffitt Cancer Center and Research Institute, Inc., priority 2008, dated 2012).

For one assay, the system named is E2F4-deficient MEFs. The settings on record: earlier work of the inventors (Ma et al., 2004); cited from earlier work.
Assay [1] deals with 8226-s, 8226-dox40 and 8226-MR20. The experiment in a line: PARP cleavage western in drug sensitive and resistant 8226 lines. The assay is classed as cell-based, human. The following applies: 24 hours; 10 μM cisplatin or 10, 20 or 40 μM HLM006474. As for the experimental part:
Cells were collected 24 hours post drug exposure and extracts subjected to western blotting using antibodies to the indicated proteins. Cleavage of PARP indicates apoptosis.

For the molecule `CC(C)(C)c1cnc(CSc2cnc(NC(=O)C3CCNCC3)s2)o1` [SNS-032], the “sensitivity of E2F4-deficient MEFs to other drugs” value (from here on “sensitivity of E2F4-deficient MEFs”) in the assay on E2F4-deficient MEFs is given as “more sensitive”.

For `COc1cc([C@@H]2c3cc4c(cc3[C@@H](O[C@@H]3O[C@@H]5CO[C@@H](C)O[C@H]5[C@H](O)[C@H]3O)[C@H]3COC(=O)[C@H]23)OCO4)cc(OC)c1O` [VP16, etoposide], the “sensitivity of E2F4-deficient MEFs” value with E2F4-deficient MEFs is listed as “more sensitive”.

On to `CC[C@H](CO)Nc1nc(NCc2ccccc2)c2ncn(C(C)C)c2n1` [roscovitine], for which the “sensitivity of E2F4-deficient MEFs” value with E2F4-deficient MEFs is reported as “more sensitive”.

In the case of `CN1CC[C@H](c2c(O)cc(O)c3c(=O)cc(-c4ccccc4Cl)oc23)[C@H](O)C1` [flavopiridol], the “sensitivity of E2F4-deficient MEFs” value with E2F4-deficient MEFs was “more sensitive”.

Turning to `N.N.[Cl][Pt][Cl]` [cisplatin, reference compound], the “sensitivity of E2F4-deficient MEFs” value with E2F4-deficient MEFs is listed as “more sensitive”. Besides, the “PARP cleavage (apoptosis) in sensitive versus resistant lines” value in assay [1] is “Minimal PARP cleavage”.
